Reference: publication PMC4454744 (Analytical biochemistry, 2015)
Like-named read-outs stand apart in the source and are kept apart here.

What was measured:
[1] = system: hepatitis C virus NS3 protease; conditions: jump dilution; cited from earlier work
[2] = molecular target: T1, R40Q/K41N/S44L saFabI variant (Staphylococcus aureus, UniProt Q6GI75, K41N/R40Q/S44L); experiment: [32P]-NAD+ direct dissociation method, saFabI; assay type: binding; conditions: saFabI system
T1 sequence (Q6GI75 1-256 R40Q/K41N/S44L): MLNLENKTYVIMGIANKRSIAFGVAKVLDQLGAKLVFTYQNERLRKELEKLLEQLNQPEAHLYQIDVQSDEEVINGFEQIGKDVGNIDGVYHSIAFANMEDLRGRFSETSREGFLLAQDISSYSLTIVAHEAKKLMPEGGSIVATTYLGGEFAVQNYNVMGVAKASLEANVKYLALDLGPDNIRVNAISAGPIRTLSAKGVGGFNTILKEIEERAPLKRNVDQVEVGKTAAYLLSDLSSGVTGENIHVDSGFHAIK

saFabI = experiment: Progress curve analysis, saFabI; assay type: biochemical, Staphylococcus aureus; conditions: for residence time tR: progress curve analysis, saFabI system, 20 °C
[3] = molecular target: T2, M. tuberculosis FabI (InhA) (Mycobacterium tuberculosis, UniProt P9WGR1)
[4] = molecular target: T2, M. tuberculosis FabI (InhA); conditions: progress curve analysis; bound to InhA; 20 °C

Row | SMILES | residence time tR [2] | residence time tR (saFabI) | other results
1 | CC(C)(C)OC(=O)N[C@H]1CCCCC/C=C\[C@@H]2C[C@@]2(C(=O)NS(=O)(=O)C2CC2)NC(=O)[C@@H]2C[C@@H](OC(=O)N3Cc4cccc(F)c4C3)CN2C1=O [ITMN-191] | – | – | recovery of enzyme activity [1]: partial recovery of enzyme activity
2 | CCCCCCc1ccc(Oc2ccccc2)c(O)c1 [PT04] | 461.5 min | 97 min | –
3 | CCCCCCc1ccc(Oc2ccccc2Cl)c(O)c1 [PT91] | – | – | residence time tR [3]: 148.4 ± 13.4 min; residence time tR [4]: 102.1 ± 11.4 min
4 | CCCCCCc1ccc(Oc2ccccc2C#N)c(O)c1 [PT119] | 833.3 min | 120.3 min | difference in koff (saFabI; progress curve analysis vs direct dissociation method, inhibition of saFabI): 8 fold
